From US8686002B2, “Heterocyclic compounds and their use as binding partners for 5-HT5 receptors” (AbbVie Deutschland GmbH & Co. KG, priority 2005, dated 2014)
Where a name gives a salt, the structure may show the parent alone.

Target: 5-HT5A (Homo sapiens, UniProt P47898)
Test: Affinity of selected compounds for 5-HT5A (Ki)
Format: binding
Description: In both assays, different concentrations of the test substances are used and the Ki and IC50 values are determined.

Chain of 5-HT5A (P47898 whole entry): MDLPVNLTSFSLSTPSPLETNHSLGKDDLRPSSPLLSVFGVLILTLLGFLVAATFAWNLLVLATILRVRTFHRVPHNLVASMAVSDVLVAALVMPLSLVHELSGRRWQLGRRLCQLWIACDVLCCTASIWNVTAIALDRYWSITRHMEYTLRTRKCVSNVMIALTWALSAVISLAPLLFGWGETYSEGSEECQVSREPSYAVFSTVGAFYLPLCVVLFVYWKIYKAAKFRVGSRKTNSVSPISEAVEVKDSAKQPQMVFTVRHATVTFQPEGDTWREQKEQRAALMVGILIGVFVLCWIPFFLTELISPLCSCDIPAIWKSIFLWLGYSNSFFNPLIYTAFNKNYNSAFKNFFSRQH

SMILES	Ki [nM]
COc1cccc(OC)c1CN1Cc2ccc(C)cc2N=C1N [Example 84, 3-(2,6-Dimethoxybenzyl)-7-methyl-3,4-dihydroquinazolin-2-aminium acetate]	< 300
COc1cccc(OC)c1CN1Cc2ccc(-c3cccnc3)cc2N=C1N [Example 85, 3-(2,6-Dimethoxybenzyl)-7-pyridin-3-yl-3,4-dihydroquinazolin-2-aminium acetate]	< 300
COc1cccc(OC)c1CN1Cc2ccc(-c3cccs3)cc2N=C1N [Example 86, 3-(2,6-Dimethoxybenzyl)-7-(2-thienyl)-3,4-dihydroquinazolin-2-aminium acetate]	< 300
COc1cccc(OC)c1CN1Cc2ccc(-c3ccc(OC(F)(F)F)cc3)cc2N=C1N [Example 87, 3-(2,6-Dimethoxybenzyl)-7-[4-trifluoromethoxy)phenyl]-3,4-dihydroquinazoline-2-aminium acetate]	< 300
COc1cccc(OC)c1CN1Cc2ccc(Nc3ccccc3)cc2N=C1N [Example 88, 7-Anilino-3-(2,6-dimethoxybenzyl)-3,4-dihydroquinazolin-2-aminium acetate]	< 300
COc1cccc(OC)c1CN1Cc2cc(Cl)ccc2N=C1N [Example 89, 6-Chloro-3-(2,6-dimethoxybenzyl)-3,4-dihydroquinazolin-2-amine]	< 300
COc1cccc(OC)c1CN1Cc2ccc(Cl)cc2N=C1N [Example 90, 7-Chloro-3-(2,6-dimethoxybenzyl)-3,4-dihydroquinazolin-2-amine]	< 300
COc1ccccc1CN1Cc2ccc([N+](=O)[O-])cc2N=C1N [Example 91, 3-(2-Methoxybenzyl)-7-nitro-3,4-dihydroquinazolin-2-amine]	< 300
COc1cccc(OC)c1CN1Cc2ccccc2N=C1NC1CCCCCC1 [Example 92, N-Cycloheptyl-3-(2,6-dimethoxybenzyl)-3,4-dihydroquinazolin-2-amine hydrochloride]	< 300
COc1cccc(OC)c1CN1Cc2ccccc2N=C1NCc1cccc2ccccc12 [Example 93, 3-(2,6-Dimethoxybenzyl)-N-(1-naphthylmethyl)-3,4-dihydroquinazolin-2-amine hydrochloride]	< 10000
COc1cccc(OC)c1CN1Cc2ccccc2N=C1NCc1ccccn1 [Example 94, [3-(2,6-Dimethoxybenzyl)-3,4-dihydroquinazolin-2-yl]pyridin-2-ylmethylamine hydrochloride]	< 10000
COc1cccc(OC)c1CN1Cc2ccccc2N=C1NCc1ccccc1 [Example 95, N-Benzyl-3-(2,6-dimethoxybenzyl)-3,4-dihydroquinazolin-2-amine hydrochloride]	< 10000
COc1ccccc1CN1Cc2ccccc2N=C1NC1CCN(Cc2ccccc2)CC1 [Example 96, N-(1-Benzylpiperidin-4-yl)-3-(2-methoxybenzyl)-3,4-dihydroquinazolin-2-amine fumarate]	< 10000
COc1ccccc1CN1Cc2ccccc2N=C1NCCc1ccccc1 [Example 97, [3-(2-Methoxybenzyl)-3,4-dihydroquinazolin-2-yl]phenethylamine hydrochloride]	< 10000
COc1ccccc1CN1Cc2ccccc2N=C1NCc1cccc2ccccc12 [Example 98, 3-(2-Methoxybenzyl)-N-(1-naphthylmethyl)-3,4-dihydroquinazolin-2-amine hydrochloride]	< 10000
COc1ccccc1CN1Cc2ccccc2N=C1NCc1cccs1 [Example 100, 3-(2-Methoxybenzyl)-N-(2-thienylmethyl)-3,4-dihydroquinazolin-2-amine hydrochloride]	< 10000
COc1ccc2c(c1)CN(Cc1ccccc1OC)C(N)=N2 [Example 101, 6-Methoxy-3-(2-methoxybenzyl)-3,4-dihydroquinazolin-2-amine]	< 300
COc1ccccc1CN1Cc2cc(Cl)ccc2N=C1N [Example 102, 6-Chloro-3-(2-methoxybenzyl)-3,4-dihydroquinazolin-2-amine]	< 300
